Where “and” joins values, the source holds several entries; their conditions need not be identical. Equal entries are not always repeated. Inconclusive results and toxic doses are left out. The calls were made as follows: active = survival T/C of 150% or more; inactive = T/C below 125% in these data.
Tested on: P388 leukemia ip, CD2F1 mice, survival T/C
Test: NCI In Vivo Anticancer Drug Screen. Data for tumor model P388 Leukemia (intraperitoneal) in CD2F1 (CDF1) mice
Conditions: endpoint: median survival time, higher = longer survival
Summary of the method: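 Mice carrying the transplanted tumor received test compound or vehicle. Survival was recorded in each group, and the value is the treated-group measurement divided by that of the vehicle-treated control group.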

[1] = dose: 100.0 mg/kg/injection, schedule: Q04DX002 (ip), vehicle: saline with Tween-80
[2] = dose: 200.0 mg/kg/injection, schedule: Q04DX002 (ip), vehicle: saline with Tween-80
[3] = dose: 50.0 mg/kg/injection, schedule: Q01DX005 (ip), vehicle: Klucel (hydroxypropylcellulose) (HPC)
[4] = dose: 100.0 mg/kg/injection, schedule: Q01DX005 (ip), vehicle: Klucel (hydroxypropylcellulose) (HPC)
[5] = dose: 200.0 mg/kg/injection, schedule: Q01DX005 (ip), vehicle: Klucel (hydroxypropylcellulose) (HPC)
[6] = dose: 50.0 mg/kg/injection, schedule: Q01DX009 (ip), vehicle: saline with Tween-80
[7] = dose: 100.0 mg/kg/injection, schedule: Q01DX009 (ip), vehicle: saline with Tween-80
[8] = dose: 200.0 mg/kg/injection, schedule: Q01DX009 (ip), vehicle: saline with Tween-80
[9] = dose: 25.0 mg/kg/injection, schedule: Q01DX005 (ip), vehicle: saline
[10] = dose: 50.0 mg/kg/injection, schedule: Q01DX005 (ip), vehicle: saline

Measured: T/C

CC(=O)CC(=O)N/N=C(N)/C(C#N)=N/N(C)c1ccccc1
inactive: [1] 97 % of control | [2] 94 % of control | dose: 400.0 mg/kg/injection, schedule: Q04DX002 (ip), vehicle: saline with Tween-80 96 % of control

C=C1C(=O)O[C@H]2C[C@@H]3O[C@@H]3[C@@H]12
inactive: dose: 1.56 mg/kg/injection, schedule: Q01DX009 (ip), vehicle: water 98 % of control | dose: 3.13 mg/kg/injection, schedule: Q01DX009 (ip), vehicle: water 100 % of control | dose: 6.25 mg/kg/injection, schedule: Q01DX009 (ip), vehicle: water 100 % of control | dose: 12.5 mg/kg/injection, schedule: Q01DX009 (ip), vehicle: water 109 % of control

COc1cc(Br)c(C2=C3c4cc(OC)c(OC)cc4CCN3C(=O)C2=O)cc1OC
inactive: [3] 99 % of control | [4] 93 % of control | [5] 90 % of control

CCCCc1c2cnccc2c(CCCC)c2c1[nH]c1ccccc12
inactive: dose: 25.0 mg/kg/injection, schedule: Q04DX002 (ip), vehicle: saline with Tween-80 105 % of control | dose: 50.0 mg/kg/injection, schedule: Q04DX002 (ip), vehicle: saline with Tween-80 100 % of control | [1] 96 % of control | [2] 91 % of control

NC(=NCc1ccc2c(c1)OCO2)N[N+](=O)[O-]
inactive: [3] 104 % of control | [4] 100 % of control | [5] 96 % of control

CCOC1=CCCCC1
inactive: dose: 100.0 mg/kg/injection, schedule: Q04DX003 (ip), vehicle: alcohol 100 % of control | dose: 200.0 mg/kg/injection, schedule: Q04DX003 (ip), vehicle: alcohol 100 % of control | dose: 400.0 mg/kg/injection, schedule: Q04DX003 (ip), vehicle: alcohol 104 % of control

CCOC(=O)CCC(NC(=O)c1ccc(NCCC(C)=O)cc1)C(=O)OCC (configuration not stated)
inactive: [6] 104 % of control | [7] 105 % of control | [8] 104 % of control | dose: 400.0 mg/kg/injection, schedule: Q01DX009 (ip), vehicle: saline with Tween-80 105 % of control

COc1cccc(C=Nc2cc(C)ccn2)c1O.COc1cccc(C=Nc2cc(C)ccn2)c1O.[Cu]
inactive: dose: 6.25 mg/kg/injection, schedule: Q01DX005 (ip), vehicle: saline with Tween-80 99 % of control | dose: 12.5 mg/kg/injection, schedule: Q01DX005 (ip), vehicle: saline with Tween-80 100 % of control | dose: 25.0 mg/kg/injection, schedule: Q01DX005 (ip), vehicle: saline with Tween-80 96 % of control

O=c1[nH]oc(=O)[nH]1
inactive: dose: 6.25 mg/kg/injection, schedule: Q01DX005 (ip), vehicle: saline 95 % of control | dose: 12.5 mg/kg/injection, schedule: Q01DX005 (ip), vehicle: saline 97 % of control | [9] 94 % of control | [10] 100 % of control and 91 % of control | dose: 200.0 mg/kg/injection, schedule: Q01DX005 (ip), vehicle: saline 100 % of control

OCC1(C2CCN(Cc3ccccc3)CC2)OCCO1
inactive: [9] 101 % of control | [10] 100 % of control | dose: 100.0 mg/kg/injection, schedule: Q01DX005 (ip), vehicle: saline 101 % of control

CCN(CC)Cc1ccc(N)cc1O
inactive: dose: 50.0 mg/kg/injection, schedule: Q01DX009 (ip), vehicle: saline 106 % of control and 107 % of control | dose: 100.0 mg/kg/injection, schedule: Q01DX009 (ip), vehicle: saline 97 % of control and 98 % of control | dose: 200.0 mg/kg/injection, schedule: Q01DX009 (ip), vehicle: saline 99 % of control and 97 % of control

Oc1c(Cl)cc(Cl)cc1C=Nc1cc(C(F)(F)F)ccc1N1CCc2ccccc2C1
inactive: [6] 98 % of control | [7] 95 % of control | [8] 96 % of control

CCC/C=C/C=C/C(=O)OC1C(C)C2(O)C3C=C(C)C(=O)C3CC(COC(C)=O)=CC2C2C(C)(C)C12OC(=O)C(C)C (configuration not stated)
inactive: dose: 0.12 mg/kg/injection, schedule: Q01DX009 (ip), vehicle: Klucel (hydroxypropylcellulose) (HPC) 111 % of control | dose: 0.25 mg/kg/injection, schedule: Q01DX009 (ip), vehicle: Klucel (hydroxypropylcellulose) (HPC) 103 % of control | dose: 0.5 mg/kg/injection, schedule: Q01DX009 (ip), vehicle: Klucel (hydroxypropylcellulose) (HPC) 107 % of control | dose: 1.0 mg/kg/injection, schedule: Q01DX005 (ip), vehicle: distilled water + Tween-80 109 % of control and 113 % of control | dose: 1.0 mg/kg/injection, schedule: Q01DX009 (ip), vehicle: Klucel (hydroxypropylcellulose) (HPC) 106 % of control | dose: 2.0 mg/kg/injection, schedule: Q01DX005 (ip), vehicle: distilled water + Tween-80 121 % of control and 123 % of control | dose: 2.0 mg/kg/injection, schedule: Q01DX005 (ip), vehicle: saline + alcohol 115 % of control | dose: 4.0 mg/kg/injection, schedule: Q01DX005 (ip), vehicle: saline + alcohol 123 % of control

NC(=O)c1ccc2c3c(ccc(C(N)=O)c13)CC2
inactive: dose: 60.0 mg/kg/injection, schedule: Q01DX005 (ip), vehicle: Klucel (hydroxypropylcellulose) (HPC) 102 % of control | dose: 120.0 mg/kg/injection, schedule: Q01DX005 (ip), vehicle: Klucel (hydroxypropylcellulose) (HPC) 109 % of control | dose: 240.0 mg/kg/injection, schedule: Q01DX005 (ip), vehicle: Klucel (hydroxypropylcellulose) (HPC) 109 % of control

Source: PubChem BioAssay AID330 (DTP/NCI, 2004)
